Assay results taken from paper PMC11073913 (Archiv der Pharmazie, 2024).
Several values for one entry are separate records, joined by “and”; a condition that tells them apart may be missing. Identical values can stand only once. Like-named read-outs stand apart in the source and are kept apart here.

How the values were obtained:
soybean 15-LOX = target: T1, soybean 15-LOX (Glycine max, UniProt P08170); test: In vitro 15-LOX inhibitory assay; type: biochemical
T1 sequence (P08170 1-839): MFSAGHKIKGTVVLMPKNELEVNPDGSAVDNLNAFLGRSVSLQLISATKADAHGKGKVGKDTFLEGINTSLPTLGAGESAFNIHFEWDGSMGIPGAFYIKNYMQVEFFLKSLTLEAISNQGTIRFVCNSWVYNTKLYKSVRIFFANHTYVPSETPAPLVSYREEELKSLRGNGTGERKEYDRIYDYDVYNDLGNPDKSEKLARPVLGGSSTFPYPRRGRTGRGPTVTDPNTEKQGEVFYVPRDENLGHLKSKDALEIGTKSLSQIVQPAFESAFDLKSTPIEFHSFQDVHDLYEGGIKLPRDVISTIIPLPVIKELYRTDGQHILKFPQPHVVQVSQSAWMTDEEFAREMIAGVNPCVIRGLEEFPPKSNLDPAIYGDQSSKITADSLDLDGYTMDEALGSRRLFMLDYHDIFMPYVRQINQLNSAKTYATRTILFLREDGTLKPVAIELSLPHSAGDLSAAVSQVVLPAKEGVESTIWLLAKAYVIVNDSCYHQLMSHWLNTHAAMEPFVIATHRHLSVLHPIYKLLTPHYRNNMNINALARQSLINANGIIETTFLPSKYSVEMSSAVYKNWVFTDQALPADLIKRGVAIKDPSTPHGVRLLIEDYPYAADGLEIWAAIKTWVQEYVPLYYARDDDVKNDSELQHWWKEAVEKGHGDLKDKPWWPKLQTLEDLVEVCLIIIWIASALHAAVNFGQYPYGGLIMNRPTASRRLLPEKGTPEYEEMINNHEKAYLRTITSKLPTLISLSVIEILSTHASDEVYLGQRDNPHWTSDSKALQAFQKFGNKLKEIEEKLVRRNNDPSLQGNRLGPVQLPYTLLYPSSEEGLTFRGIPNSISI

[1] = tested on: LPS-induced TNF-α production in RAW 264.7 cells; details: LPS-activated RAW 264.7; for TNF-α level: cells treated with 25 μM compound
human recombinant COX-2 = target: T2, human recombinant COX-2 (Homo sapiens, UniProt P35354); test: In vitro COX-2 inhibitory assay; type: biochemical; details: for Enhancement of anti-COX-2 activity by p-Cl on benzylidine: compared with unsubstituted compounds 4b, 4c, 4g, 4h respectively
T2 sequence (P35354 18-604): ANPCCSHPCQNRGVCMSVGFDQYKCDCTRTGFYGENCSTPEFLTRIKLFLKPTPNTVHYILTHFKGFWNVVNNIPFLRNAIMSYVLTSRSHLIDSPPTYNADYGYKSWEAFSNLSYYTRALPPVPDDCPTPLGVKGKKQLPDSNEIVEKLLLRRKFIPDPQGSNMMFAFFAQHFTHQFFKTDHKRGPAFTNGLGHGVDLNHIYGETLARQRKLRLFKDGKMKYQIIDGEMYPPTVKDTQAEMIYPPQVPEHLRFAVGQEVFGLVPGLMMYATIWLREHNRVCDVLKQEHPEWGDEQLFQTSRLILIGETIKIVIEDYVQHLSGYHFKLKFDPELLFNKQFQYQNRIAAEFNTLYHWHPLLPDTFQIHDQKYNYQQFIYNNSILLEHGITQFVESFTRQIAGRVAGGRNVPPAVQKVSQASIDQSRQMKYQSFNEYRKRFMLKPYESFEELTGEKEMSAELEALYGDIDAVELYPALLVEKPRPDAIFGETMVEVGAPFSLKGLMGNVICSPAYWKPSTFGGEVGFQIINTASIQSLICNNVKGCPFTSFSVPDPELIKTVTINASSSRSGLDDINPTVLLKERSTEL

ovine COX-1 = target: T3, ovine COX-1 (Ovis aries, UniProt P05979); test: In vitro COX-1 inhibitory assay; type: biochemical
T3 sequence (P05979 25-600): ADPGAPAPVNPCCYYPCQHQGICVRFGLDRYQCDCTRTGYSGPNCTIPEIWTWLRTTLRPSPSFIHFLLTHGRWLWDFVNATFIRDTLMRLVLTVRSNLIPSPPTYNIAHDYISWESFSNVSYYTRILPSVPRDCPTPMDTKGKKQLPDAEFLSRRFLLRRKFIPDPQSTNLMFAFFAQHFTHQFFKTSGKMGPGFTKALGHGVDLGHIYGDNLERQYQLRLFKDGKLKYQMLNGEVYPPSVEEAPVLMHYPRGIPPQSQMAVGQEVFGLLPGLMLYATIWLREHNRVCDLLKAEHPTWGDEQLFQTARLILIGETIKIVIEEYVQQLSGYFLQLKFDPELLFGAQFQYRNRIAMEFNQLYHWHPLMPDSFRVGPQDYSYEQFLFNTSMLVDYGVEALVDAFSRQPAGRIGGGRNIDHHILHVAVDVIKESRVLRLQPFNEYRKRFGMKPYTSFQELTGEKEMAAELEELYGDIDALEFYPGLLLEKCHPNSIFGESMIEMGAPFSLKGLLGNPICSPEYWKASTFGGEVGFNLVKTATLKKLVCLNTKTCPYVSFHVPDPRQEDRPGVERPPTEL

[2] = tested on: NF-κB activation in RAW 264.7 macrophages; test: NF-κB activation in LPS-activated RAW 264.7 macrophages; type: cell-based, murine; details: 25 μM pretreatment, Western blot
[3] = tested on: LPS-induced IL-6 production in RAW 264.7 cells; details: LPS-activated RAW 264.7; for IL-6 level: cells treated with 25 μM compound
[4] = tested on: LPS-induced ROS production in RAW 264.7 cells; test: cells; details: Mus musculus, RAW264.7, 18 h, read-out: ROS (IC50)
Cell viability assay = type: cell-based, murine; details: mouse, RAW 264.7 macrophage cells
[5] = tested on: LPS-induced ROS production in RAW 264.7 cells; details: read-out: ROS (IC50), LPS (1 μg/mL) 18 h, mean ± SEM
[6] = read-out: 15-LOX IC50, soybean 15-LOX
[7] = read-out: COX1, IC50, ovine COX-1, mean ± SEM

SMILES	IC50 (soybean 15-LOX) [µM]	TNF-α level [1]	IC50 (human recombinant COX-2) [µM]	SI (Selectivity index = COX-1 IC50/COX-2 IC50) (human recombinant COX-2; COX-1 IC50/COX-2 IC50)	Enhancement of anti-COX-2 activity by p-Cl on benzylidine (human recombinant COX-2) [folds]	IC50 (ovine COX-1) [µM]	LPS-mediated increase in NF-κB activation (phospho/total NF-κB) [2]	IL-6 level [3]	IC50 [4] [µM]	viability at 50 µM (Cell viability assay) [%]	Lowering of TNF-α level [1]	Lowering of IL-6 level [3]	IC50 (soybean 15-LOX; [6]) [µM]	SI (Selectivity index = COX-1 IC50/COX-2 IC50) (human recombinant COX-2)	IC50 (human recombinant COX-2; read-out: COX2, IC50) [µM]	IC50 (ovine COX-1; [7]) [µM]	IC50 [5] [µM]
O=C(CSC1=N/C(=C\c2ccc(Cl)cc2)C(=O)N1c1ccccc1)Nc1ccc(Cl)cc1 [Compound 4l, (Z)-2-{[4-(4-Chlorobenzylidene)-5-oxo-1-phenyl-4,5-dihydro-1H-imidazol-2-yl]thio}-N-(4-chlorophenyl)acetamide]	2.69 ± 1.29	26.47 ± 5.33 pg/mL	0.08 ± 0.035	154.73	1.75	12.3 ± 1.84	attenuated	25.57 pg/mL and 25.75 ± 5.33 pg/mL	52.7 ± 1.35	83 to 105	–	–	–	–	–	–	–
COc1ccc(NC(=O)CSC2=N/C(=C\c3ccccc3)C(=O)N2c2ccccc2)cc1 [Compound 4f, (Z)-2-[(4-Benzylidene-5-oxo-1-phenyl-4,5-dihydro-1H-imidazol-2-yl)thio]-N-(4-methoxyphenyl)acetamide]	3.96 ± 1.49	22.94 ± 6.32 pg/mL	0.08 ± 0.04	131.59	–	11 ± 1.53	attenuated	22.21 pg/mL and 22.21 ± 6.32 pg/mL	22.8 ± 1.32	83 to 105	~ 80%	~ 80%	–	–	–	–	–
O=C(CSC1=N/C(=C\c2ccccc2)C(=O)N1c1ccccc1)Nc1ccc(Br)cc1 [Compound 4d, (Z)-2-[(4-Benzylidene-5-oxo-1-phenyl-4,5-dihydro-1H-imidazol-2-yl)thio]-N-(4-bromophenyl) acetamide]	–	27.08 pg/mL and 27.08 ± 4.22 pg/mL	–	–	–	–	–	26.35 pg/mL and 26.35 ± 4.22 pg/mL	–	–	–	–	5.14 ± 2.48	64.13	0.13 ± 0.071	8.14 ± 1.53	62.1 ± 1.51
O=C(CSC1=N/C(=C\c2ccccc2)C(=O)N1c1ccccc1)Nc1ccc(Cl)cc1 [Compound 4c, (Z)-2-[(4-Benzylidene-5-oxo-1-phenyl-4,5-dihydro-1H-imidazol-2-yl)thio]-N-(4-chlorophenyl) acetamide]	–	49.81 ± 23.20 pg/mL	–	–	–	–	–	49.08 ± 23.20 pg/mL	–	–	–	–	3.24 ± 1.46	64.62	0.14 ± 0.062	9.12 ± 1.4	61.6 ± 1.51
Cc1ccc(NC(=O)CSC2=N/C(=C\c3ccccc3)C(=O)N2c2ccccc2)cc1 [Compound 4e, (Z)-2-[(4-Benzylidene-5-oxo-1-phenyl-4,5-dihydro-1H-imidazol-2-yl)thio]-N-(4-tolyl) acetamide]	–	58.19 ± 23.16 pg/mL	–	–	–	–	–	34.33 ± 1.82 pg/mL	–	–	–	–	5.14 ± 2.48	90.85	0.1 ± 0.048	9.12 ± 1.4	118 ± 2.36
O=C(CSC1=N/C(=C\c2ccc(Cl)cc2)C(=O)N1c1ccccc1)Nc1ccc(F)cc1 [Compound 4k, (Z)-2-{[4-(4-Chlorobenzylidene)-5-oxo-1-phenyl-4,5-dihydro-1H-imidazol-2-yl]thio}-N-(4-fluorophenyl)acetamide]	2.17 ± 1.04	28.29 ± 14.76 pg/mL	0.07 ± 0.034	186.28	1.85	13 ± 1.82	–	27.57 ± 14.76 pg/mL	71 ± 1.55	83 to 105	–	–	–	–	–	–	–
